Results from patent US11806342B2, “Diiodohydroxyquinoline for the treatment of clostridium difficile infection” (Purdue Research Foundation, priority 2019, dated 2023).
Converted amounts (≈) assume the structure as drawn.

Columns and labels:
[1] = test system: C. difficile I6; experiment: MIC and MBC, broth microdilution; format: cell-based, Clostridium difficile; settings: Clostridioides difficile, C. difficile I6; for MBC: read-out: MBC; for MIC: read-out: MIC
Procedure: (§1) Antibacterial activity of Diiodohydroxyquinoline against a wide panel of Clostridium difficile strains. […] MIC50 and MIC90 are the minimum concentration of each agent that inhibited growth of 50% and 90% of the tested isolates, respectively. The minimum bactericidal concentration (MBC) of these drugs was tested by plating 5 μL from wells with no growth onto BHIS agar plates. The MBC was categorized as the lowest concentration that reduced bacterial growth by 99.9% MIC50 and MIC90 are the minimum concentration of each agent that inhibited the growth of 50% and 90% of the tested isolates, respectively. The minimum bactericidal concentration (MBC) of these drugs was tested by plating 5 μL from wells with no growth onto BHIS agar plates. The MBC was categorized as the lowest concentration that reduced bacterial growth by 99.9% [29-31].

[2] = test system: C. difficile P6; experiment: MIC and MBC, broth microdilution; format: cell-based, Clostridium difficile; settings: Clostridioides difficile, C. difficile P6; for MBC: read-out: MBC; for MIC: read-out: MIC
Procedure: as §1

[3] = test system: C. difficile ATCC 43255; experiment: Toxin A and B production inhibition, ELISA; format: cell-based, Clostridium difficile; settings: for inhibition of total toxin production: 8 hours
Procedure: (§2) To investigate DIHQs toxin production inhibitory activity, toxin A and toxin B levels were measured as described previously. […] An aliquot from each tube was diluted and plated on BHIS agar plates and incubated anaerobically at 37° C. for 24 hours to detect the bacterial count. The total concentration of C. difficile toxin A and B was measured in the supernatant of each tube using enzyme linked immunosorbent assay (ELISA) kit (tgc BIOMICS, Dunwoody, GA) following the manufacturer's instructions. The (OD450-OD620) values, corresponding to the toxin concentration, were measured for DIHQ and control drugs.

[4] = test system: C. difficile ATCC BAA-1870; experiment: Toxin A and B production inhibition, ELISA; format: cell-based, Clostridium difficile; settings: for inhibition of total toxin production: 8 hours
Procedure: as §2

[5] = test system: C. difficile NR-49277; experiment: Toxin A and B production inhibition, ELISA; format: cell-based, Clostridium difficile; settings: for inhibition of total toxin production: 8 hours
Procedure: as §2

[6] = test system: Bacteroides dorei HM-717; experiment: MIC against normal gut microflora, broth microdilution; format: cell-based; settings: Phocaeicola dorei, HM717; Bacteroides dorei HM-717; read-out: MIC
Procedure: (§3) In vitro antimicrobial evaluation of diiodohydroxyquinoline against normal microflora. The broth microdilution assay was utilized to determine the MICs of DIHQ and control antibiotics against commensal organisms that compose he human gut microflora, as described elsewhere. A bacterial solution equivalent to 0.5 McFarland standard was prepared and diluted in BHIS broth (for Bifidobacterium and Bacteroides) or in MRS broth (for Lactobacillus) to achieve a bacterial concentration of about 5×10^5 CFU/mL. Then, drugs were added and serially diluted along the plates.

[7] = test system: Bacteroides dorei HM-718; experiment: as above; format: cell-based; settings: Phocaeicola dorei, HM718; Bacteroides dorei HM-718; read-out: MIC
Procedure: as §3

[8] = test system: Bacteroides dorei HM-719; experiment: as above; format: cell-based; settings: Phocaeicola dorei, HM719; Bacteroides dorei HM-719; read-out: MIC
Procedure: as §3

[9] = test system: Bacteroides fragilis HM-709; experiment: as above; format: cell-based; settings: HM709; Bacteroides fragilis HM-709; read-out: MIC
Procedure: as §3

[10] = test system: Bacteroides fragilis HM-710; experiment: as above; format: cell-based; settings: HM710; Bacteroides fragilis HM-710; read-out: MIC
Procedure: as §3

[11] = test system: Bacteroides fragilis HM-711; experiment: as above; format: cell-based; settings: HM711; Bacteroides fragilis HM-711; read-out: MIC
Procedure: as §3

[12] = test system: Bacteroides fragilis HM-714; experiment: as above; format: cell-based; settings: HM714; Bacteroides fragilis HM-714; read-out: MIC
Procedure: as §3

[13] = test system: Bifidobacterium adolescentis HM-633; experiment: as above; format: cell-based; settings: HM633; Bifidobacterium adolescentis HM-633; read-out: MIC
Procedure: as §3

[14] = test system: Bifidobacterium breve HM-1120; experiment: as above; format: cell-based; settings: HM1120; Bifidobacterium breve HM-1120; read-out: MIC
Procedure: as §3

[15] = test system: Bifidobacterium breve HM-411; experiment: as above; format: cell-based; settings: HM411; Bifidobacterium breve HM-411; read-out: MIC
Procedure: as §3

[16] = test system: Bifidobacterium longum HM-845; experiment: as above; format: cell-based; settings: HM845; Bifidobacterium longum HM-845; read-out: MIC
Procedure: as §3

[17] = test system: Bifidobacterium longum HM-847; experiment: as above; format: cell-based; settings: HM847; Bifidobacterium longum HM-847; read-out: MIC
Procedure: as §3

[18] = test system: Lactobacillus casei ATCC 334; experiment: as above; format: cell-based; settings: Lacticaseibacillus casei, ATCC334; Lactobacillus casei ATCC 334; read-out: MIC
Procedure: as §3

[19] = test system: Lactobacillus reuteri HM-102; experiment: as above; format: cell-based; settings: Limosilactobacillus reuteri, HM102; Lactobacillus reuteri HM-102; read-out: MIC
Procedure: as §3

[20] = test system: C. difficile ATCC BAA-1870; experiment: Time kill kinetics assay; format: cell-based, Clostridium difficile; settings: C. difficile ATCC BAA-1870, 5×MIC, 37° C.
Procedure: (§4) Time kill kinetics assay. In order to examine the killing kinetics of DIHQ, a time kill kinetics assay was performed against Clostridium difficile ATCC BAA 1870 and C. difficile NR-49277 as described previously. […] Aliquots were collected from each treatment after 0, 4, 6, 8, 12, and 24 hours of incubation at 37° C. and subsequently serially diluted and plated for viable CFU/mL determination.

[21] = test system: C. difficile NR-49277; experiment: Time kill kinetics assay; format: cell-based, Clostridium difficile; settings: C. difficile NR-49277, 5×MIC, 37° C.
Procedure: as §4

[22] = test system: C. difficile ATCC 43255; experiment: Checkerboard assay, DIHQ with metronidazole or vancomycin; format: cell-based, Clostridium difficile; settings: C. difficile ATCC 43255
Procedure: (§5) The fractional inhibitory concentration index (ΣFIC) was calculated for each interaction. Interactions where the ΣFIC index was ≤0.5 were categorized as synergistic (SYN).

[23] = test system: C. difficile ATCC BAA-1870; experiment: as above; format: cell-based, Clostridium difficile; settings: C. difficile ATCC BAA-1870
Procedure: as §5

[24] = test system: C. difficile I9; experiment: as above; format: cell-based, Clostridium difficile; settings: C. difficile I9
Procedure: as §5

| Compound | MBC [1] | MIC [1] | MBC [2] | MIC [2] | MIC [6] | MIC [7] | MIC [8] | MIC [9] | MIC [10] | MIC [11] | MIC [12] | MIC [13] | MIC [14] | MIC [15] | MIC [16] | MIC [17] | MIC [18] | MIC [19] | other results |
| --- | --- | --- | --- | --- | --- | --- | --- | --- | --- | --- | --- | --- | --- | --- | --- | --- | --- | --- | --- |
| CCc1c(Cl)c(O)c(Cl)c(O)c1C(=O)O[C@H]1[C@H](O)[C@H](OC)[C@H](OC/C2=C\C=C\C[C@H](O)/C(C)=C/[C@H](CC)[C@@H](O[C@@H]3OC(C)(C)[C@@H](OC(=O)C(C)C)[C@H](O)[C@@H]3O)/C(C)=C/C(C)=C/C[C@@H]([C@@H](C)O)OC2=O)O[C@@H]1C [Fidaxomicin, fidaxomicin] | 0.06 µg/mL (≈ 0.0567 µM) | 0.06 µg/mL (≈ 0.0567 µM) | 0.003 µg/mL (≈ 0.00284 µM) | 0.003 µg/mL (≈ 0.00284 µM) | > 128 µg/mL | > 128 µg/mL | 128 µg/mL (≈ 121 µM) | > 128 µg/mL | > 128 µg/mL | > 128 µg/mL | > 128 µg/mL | ≤ 1 µg/mL | ≤ 1 µg/mL | 2 µg/mL (≈ 1.89 µM) | ≤ 1 µg/mL | ≤ 1 µg/mL | > 128 µg/mL | > 128 µg/mL | inhibition of total toxin production ([3]; C. difficile ATCC 43255, ¼×MIC): 14.3%; inhibition of total toxin production ([3]; C. difficile ATCC 43255, ½×MIC): 37%; inhibition of total toxin production ([4]; C. difficile ATCC BAA-1870, ¼×MIC): 31.9%; inhibition of total toxin production ([4]; C. difficile ATCC BAA-1870, ½×MIC): 46.2%; inhibition of total toxin production ([5]; C. difficile NR-49277, ¼×MIC): 58.8%; inhibition of total toxin production ([5]; C. difficile NR-49277, ½×MIC): 67.4% |
| Cc1ncc([N+](=O)[O-])n1CCO [Metronidazole, metronidazole] | 0.25 µg/mL (≈ 1.46 µM) | 0.25 µg/mL (≈ 1.46 µM) | 0.25 µg/mL (≈ 1.46 µM) | 0.25 µg/mL (≈ 1.46 µM) | ≤ 1 µg/mL | ≤ 1 µg/mL | ≤ 1 µg/mL | 2 µg/mL (≈ 11.7 µM) | 2 µg/mL (≈ 11.7 µM) | ≤ 1 µg/mL | ≤ 1 µg/mL | ≤ 1 µg/mL | ≤ 1 µg/mL | 2 µg/mL (≈ 11.7 µM) | ≤ 1 µg/mL | ≤ 1 µg/mL | 16 µg/mL (≈ 93.5 µM) | > 128 µg/mL | time required to generate a 3-log10 reduction in CFU/mL [20]: 12 hours; time required to generate a 3-log10 reduction in CFU/mL [21]: 12 hours; MIC of metronidazole combined with DIHQ [22]: 0.015 µg/mL; MIC of metronidazole combined with DIHQ [23]: 0.015 µg/mL; MIC of metronidazole combined with DIHQ [24]: 0.015 µg/mL; toxin inhibition (in words) ([3]; C. difficile ATCC 43255, ¼×MIC and ½×MIC): No toxin inhibition; toxin inhibition (in words) ([4]; C. difficile ATCC BAA-1870, ¼×MIC and ½×MIC): No toxin inhibition; toxin inhibition (in words) ([5]; C. difficile NR-49277, ¼×MIC and ½×MIC): No toxin inhibition |
